From patent US7378385B2, “Role for GLP-1 to mediate responses to disparate stressors” (University of Cincinnati, priority 2002, dated 2008)
Where no end group is shown, it is not given here.

Tests used:
[1] = system: mammalian central nervous system; assay: Relative potency in the mammalian central nervous system; type: in vivo
HPA axis [2] = assay: Effect of central (intracerebroventricular) GLP-1 on the HPA axis, plasma ACTH and corticosterone by RIA; type: in vivo, rats
Description: Central GLP1 effects on the HPA axis were assayed as described in Kinzig et al. (2003) J. Neuroscience 21:6163-6170, herein incorporated by reference in its entirety). Ten male Long-Evans rats (275-350 gm) were housed individually in plastic tub cages with a 12 hour light/dark cycle. […] Catheters were made of sterile SILASTIC tubing, the distal end beveled, a small piece sterile suture tied at 4 cm from the distal end, and filled with heparinized saline. The catheter was attached to a 1 ml syringe filled with heparinized saline at the end that remained at the head. Under ketamine ([…], i.p.) and xylazine (1.5 mg/kg i.p.) anesthesia, the rat's abdomen and top of the head were shaved. A midline incision (approx. 8 cm in length) was made beginning at the sternum. An additional incision was made on the skull. The catheter was subcutaneously from the skull incision to the muscle wall lining the intraperitoneal cavity with a pair of straight hemostats. The muscle wall underlying the abdominal skin incision was opened. A small incision was made in the right muscle wall, through which the catheter was pulled into the intraperitoneal cavity. […] The vein was then punctured with a 21 gauge needle, and the catheter was quickly inserted to the 4 cm mark. Heparinized saline (0.5 ml) was slowly pushed through the inserted catheter. One suture was made in the dorsal muscle wall immediately to the right of the insertion site. […]
Ten days after surgery, cannula placement was verified by administering angiotensin II through the cannula (intracerebroventricular, (i3vt)). Catheter patency was also determined 10 days after surgery. […]
Plasma was extracted and subsequently assayed (RIA) for ACTH and corticosterone (CORT). Results from one such experiment are presented in FIG. 1, panels A and B. Results were analyzed by two-way ANOVA and Tukey's HSD test.
Plasma ACTH and corticosterone concentrations were determined using ^125I-labeled rat ACTH and corticosterone kits according to manufacturers' instructions. […]

HPA axis [3] = assay: Peripheral (intraperitoneal) GLP-1 effects on the HPA axis; type: in vivo, rats; conditions: peripheral administration of GLP-1
Description: Plasma ACTH and corticosterone concentrations were determined using ^125I-labeled rat ACTH and corticosterone kits according to manufacturers' instructions. The limits of detection for each kit are 15 pg/ml and 8 ng/ml, respectively. For both ACTH and corticosterone assays, all plasma samples were run in duplicate in single assays.
An additional group of six rats was prepared as described in example 1 to test the effects of peripheral administration of GLP-1 on ACTH and corticosterone (CORT) release. Using a within-subjects design, rats were administered saline and 10, 100, and 500 μg/kg GLP-1 intraperitoneally. Each rat received each treatment in a randomized manner, with no less than 5 days between treatments.

| Substance | potency relative to GLP-1(7-36) amide [1] | activation of the HPA axis, dose compared with dose required to decrease food intake (HPA axis [2]; GLP-1 acting in the CNS) | activity of the HPA axis (HPA axis [2]; central administration of GLP-1) | stress response (HPA axis [2]; in vivo) | activity of the HPA axis (HPA axis [3]) |
| --- | --- | --- | --- | --- | --- |
| exendin 4: GLP-1 receptor agonist | at least 20 times | – | – | – | – |
| GLP-1: post-translational product of preproglucagon; ligand of the GLP-1 receptor (HAEGTFTSDVSSYLEGQAAKEFIAWLVKGR; ends and bridges not checked; UniProt P01275 98-127, looked up) | – | potent activation of the HPA axis at doses lower than that required to decrease food intake | excites the HPA axis | increases the stress response | does not |
